The values below come from article PMC4186856, “Structural Basis for Resistance to Diverse Classes of NAMPT Inhibitors” (PLoS ONE, 2014).

One data set has as its system RD cell line. Nature of the data set: Cellular IC50 in parental RD cell line. Conditions: Homo sapiens, read-out: Parental GNE-618 IC50, NAPRT1 negative. Type of data set: cell-based.
The next data set has as its system NCI-H460 cell line. The experiment in a line: Cellular IC50 in parental NCI-H460 cell line. Conditions: Homo sapiens, read-out: Parental GNE-618 IC50, NAPRT1 negative. Type of data set: cell-based.
For a further data set, the system named is Mia-Paca2 cell line. The experiment in a line: Cellular IC50 in parental Mia-Paca2 cell line. Type of data set: cell-based. The settings on record: Homo sapiens, MIA PaCa-2, read-out: Parental GNE-618 IC50, NAPRT1 negative.
The next data set relates to NCI-H520 cell line. The experiment in a line: Cellular IC50 in parental NCI-H520 cell line. Type of data set: cell-based. Conditions: Homo sapiens, read-out: Parental GNE-618 IC50, NAPRT1 positive.
Data set [1] has as its system RD cell line harboring only the D93 deletion. The experiment in a line: Cellular IC50 shift, RD resistant line (earlier passage) with D93 deletion only. Type of data set: cell-based. The settings on record: cell line carrying D93del.
In data set [2] the test system is GNE-618 resistant cell lines. Nature of the data set: Total cellular NAD in GNE-618 resistant cell lines. Type of data set: cell-based. Conditions: after GNE-618 at 100-fold the parental line IC50; all resistant lines except those harboring only D93del or S165Y.
For data set [3], the system named is cell lines carrying S165Y (NCI-H460). Nature of the data set: Cellular IC50 shift, resistant cell line carrying S165Y. Type of data set: cell-based.
The test system of data set [4] is GNE-618 resistant cell lines harboring mutations other than D93del only or S165Y. Nature of the data set: Cellular IC50 shift, resistant cell lines harboring the other mutations. Type of data set: cell-based. The settings on record: cell lines harboring the other mutations (not D93del only or S165Y).
Data set [5] concerns 293T cells expressing NAMPT S165F. The experiment in a line: Response of 293T cells expressing NAMPT S165F. Type of data set: cell-based. Conditions: NAMPT S165F expressed in 293T cells.
The subject of data set [6] is 293T cells expressing NAMPT S165Y. The experiment in a line: Response of 293T cells expressing NAMPT S165Y. Conditions: NAMPT S165Y expressed in 293T cells. Type of data set: cell-based.
The subject of data set [7] is NCI-H460 tumor xenografts. Nature of the data set: NCI-H460 parental xenograft efficacy. The settings on record: 100 mg/kg, oral, QD for 7 days, p = 0.007 vs. vehicle. Type of data set: in vivo, mice.
A short description of data set [8]: Tolerability in xenograft-bearing mice. Type of data set: in vivo. The settings on record: doses tested in NCI-H460 parental and S165Y mutant models, oral QD 7 days.
In data set [9] the test system is RD cell line with the S165F mutation. Conditions: RD parent and S165F resistant line, ± 10 µM nicotinic acid.
The test system of data set [10] is NCI-H460 S165Y tumor xenografts. The experiment in a line: NCI-H460 S165Y mutant xenograft efficacy. Conditions: oral QD, also at higher doses.
In the next data set the target is T1, WT NAMPT (Homo sapiens, UniProt P43490).
T1 construct: An expression construct for full length human (XP_540386) NAMPT was constructed using pET21B; His6 (C); made in house; host or cells: E. coli Rosetta (DE3)
Nature of the data set: NAMPT enzymatic inhibition, wild-type protein (RapidFire/MS detection of NMN). The settings on record: purified wild-type NAMPT 30 nM; 1 µM NAM, 100 µM PRPP, 2.5 mM ATP; read-out: Biochemical IC50, WT.

The target of another data set is T2, NAMPT G217V (Homo sapiens, UniProt P43490, G217V).
T2 construct: An expression construct for full length human (XP_540386) NAMPT was constructed using pET21B; His6 (C); made in house; host or cells: E. coli Rosetta (DE3)
Nature of the data set: NAMPT enzymatic inhibition, G217V mutant protein. The settings on record: purified G217V NAMPT 30 nM; 1 µM NAM, 100 µM PRPP, 2.5 mM ATP; read-out: Biochemical IC50, G217V.

The next data set addresses T3, NAMPT G217R (Homo sapiens, UniProt P43490, G217R).
T3 construct: An expression construct for full length human (XP_540386) NAMPT was constructed using pET21B; His6 (C); made in house; host or cells: E. coli Rosetta (DE3)
The experiment in a line: NAMPT enzymatic inhibition, G217R mutant protein. The settings on record: purified G217R NAMPT 30 nM; 1 µM NAM, 100 µM PRPP, 2.5 mM ATP; read-out: Biochemical IC50, G217R.

The target of a further data set is T4, NAMPT G217A (Homo sapiens, UniProt P43490, G217A).
T4 construct: An expression construct for full length human (XP_540386) NAMPT was constructed using pET21B; His6 (C); made in house; host or cells: E. coli Rosetta (DE3)
The experiment in a line: NAMPT enzymatic inhibition, G217A mutant protein. Conditions: purified G217A NAMPT 30 nM; 1 µM NAM, 100 µM PRPP, 2.5 mM ATP; read-out: Biochemical IC50, G217A.

A further data set addresses T5, NAMPT S165F (Homo sapiens, UniProt P43490, S165F).
T5 construct: An expression construct for full length human (XP_540386) NAMPT was constructed using pET21B; His6 (C); made in house; host or cells: E. coli Rosetta (DE3)
The experiment in a line: NAMPT enzymatic inhibition, S165F mutant protein. The settings on record: purified S165F NAMPT 30 nM; 1 µM NAM, 100 µM PRPP, 2.5 mM ATP; read-out: Biochemical IC50, S165F.

A further data set concerns the target T6, NAMPT S165Y (Homo sapiens, UniProt P43490, S165Y).
T6 construct: An expression construct for full length human (XP_540386) NAMPT was constructed using pET21B; His6 (C); made in house; host or cells: E. coli Rosetta (DE3)
Nature of the data set: NAMPT enzymatic inhibition, S165Y mutant protein. The settings on record: purified S165Y NAMPT 50 nM; 1 µM NAM, 100 µM PRPP, 2.5 mM ATP; read-out: Biochemical IC50, S165Y.

The target in the next data set is T7, NAMPT H191R (Homo sapiens, UniProt P43490, H191R).
T7 construct: An expression construct for full length human (XP_540386) NAMPT was constructed using pET21B; His6 (C); made in house; host or cells: E. coli Rosetta (DE3)
The experiment in a line: NAMPT enzymatic inhibition, H191R mutant protein. The settings on record: purified H191R NAMPT 30 nM; 1 µM NAM, 100 µM PRPP, 2.5 mM ATP; read-out: Biochemical IC50, H191R.

T6 sequence (P43490 whole entry S165Y): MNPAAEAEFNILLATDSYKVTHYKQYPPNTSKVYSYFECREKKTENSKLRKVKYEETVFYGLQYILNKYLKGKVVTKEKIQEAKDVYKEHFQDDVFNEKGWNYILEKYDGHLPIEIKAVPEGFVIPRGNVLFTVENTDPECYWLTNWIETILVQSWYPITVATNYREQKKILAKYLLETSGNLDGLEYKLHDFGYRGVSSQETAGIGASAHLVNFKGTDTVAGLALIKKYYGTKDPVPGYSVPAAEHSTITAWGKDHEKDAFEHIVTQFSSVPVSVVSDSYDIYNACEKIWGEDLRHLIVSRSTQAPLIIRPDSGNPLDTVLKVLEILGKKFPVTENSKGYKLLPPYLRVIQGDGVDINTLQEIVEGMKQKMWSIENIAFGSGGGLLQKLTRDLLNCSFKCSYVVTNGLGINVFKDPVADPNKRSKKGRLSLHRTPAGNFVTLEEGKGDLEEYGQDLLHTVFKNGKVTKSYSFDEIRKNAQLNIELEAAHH
T3 sequence (P43490 whole entry G217R): as the sequence (P43490 whole entry S165Y) above, with Y165S, G217R counted along it
T7 sequence (P43490 whole entry H191R): as the sequence (P43490 whole entry S165Y) above, with Y165S, H191R counted along it
T5 sequence (P43490 whole entry S165F): as the sequence (P43490 whole entry S165Y) above, with Y165F counted along it
T2 sequence (P43490 whole entry G217V): as the sequence (P43490 whole entry S165Y) above, with Y165S, G217V counted along it
T1 sequence (P43490 whole entry): as the sequence (P43490 whole entry S165Y) above, with Y165S counted along it
T4 sequence (P43490 whole entry G217A): as the sequence (P43490 whole entry S165Y) above, with Y165S, G217A counted along it

The IC50 is the concentration that inhibits the measured activity by half. Consider `O=C(NCc1ccc(S(=O)(=O)c2cccc(C(F)(F)F)c2)cc1)c1cnc2[nH]ncc2c1` [compound 1], for which the IC50 with RD cell line was determined as 2 ± 0.2 nM; in the data set on NCI-H460 cell line it was 197 ± 6 nM; in the data set with Mia-Paca2 cell line, 34 ± 2 nM; with NCI-H520 cell line, 9 ± 0.4 nM. The “Shift in IC50 vs parental” value in [1] and in [3] was “less than 100 fold” throughout. For the same compound, the “Reduction of cellular NAD” value in data set [2] is on record as “less than 90%”. In addition, the “Increase in IC50 vs parental” value in data set [4] is reported as not below 100 fold. The “Sensitivity compared to wild-type NAMPT expression” value in [5] and in [6] was “diminished sensitivity” throughout. Further, in data set [7], the Tumor growth inhibition is on record as 54%. Besides, the “Tolerability (weight loss, morbidity, mortality)” value in data set [8] is given as “well tolerated”. In addition, in data set [9], the “IC50 in the presence or absence of 10 µM NA” value is “not significantly different”. Moreover, the “Response of tumor xenografts to treatment” value in data set [10] is reported as “completely resistant”.

In the case of `O=C(NCc1ccc(S(=O)(=O)c2cccc(C(F)(F)F)c2)cc1)c1cc2cnccc2s1` [compound 2], the IC50 on WT NAMPT is 5 nM; at NAMPT G217V, more than 5000 nM; at NAMPT G217R it was more than 5000 nM; at NAMPT G217A, 191 nM; at NAMPT S165F, 15 nM; on NAMPT S165Y it was 21 nM. The IC50 at NAMPT H191R amounted to 2170 nM.

As for `O=C(NCc1ccc(S(=O)(=O)c2ccccc2)cc1)c1cnc2[nH]ncc2c1` [compound 4], the IC50 on WT NAMPT was 80 nM; at NAMPT G217V, 4160 nM; on NAMPT G217R, more than 5000 nM; at NAMPT G217A, more than 5000 nM; at NAMPT S165F, 1930 nM; on NAMPT S165Y, 2530 nM. In addition, the IC50 on NAMPT H191R is more than 5000 nM.

Regarding `O=C(NCc1ccc(S(=O)(=O)c2ccc(N3CCOCC3)nc2)cc1)c1cnc2[nH]ncc2c1` [compound 6], the IC50 was 26 nM on WT NAMPT; more than 5000 nM at NAMPT G217V; more than 5000 nM at NAMPT G217R; more than 5000 nM on NAMPT G217A; 175 nM on NAMPT S165F; 148 nM at NAMPT S165Y. Further, the IC50 at NAMPT H191R is more than 5000 nM.

Regarding `CCN(C)c1ncc(S(=O)(=O)c2ccc(CNC(=O)c3cnc4[nH]ncc4c3)cc2)s1` [compound 7], the half-maximal inhibitory concentration (IC50) is 7 nM on WT NAMPT; 3380 nM on NAMPT G217V; more than 5000 nM at NAMPT G217R; 2050 nM on NAMPT G217A; 42 nM on NAMPT S165F; 115 nM at NAMPT S165Y. The IC50 at NAMPT H191R is more than 5000 nM.

With `N#CN=C(NCCCCCCOc1ccc(Cl)cc1)Nc1ccncc1` [compound 9], the “Sensitivity compared to wild-type NAMPT expression” value in [5] and in data set [6] was “more modest” each time.

`O=C(/C=C/c1cccnc1)NCCCCC1CCN(C(=O)c2ccccc2)CC1` [compound 11]: the “Sensitivity compared to wild-type NAMPT expression” value in [5] and in data set [6] was “more modest” throughout.
